The record followed here is patent US20260001928A1 (CORTERIA PHARMACEUTICALS, priority 2022, published 2026).

*1 amine or outer side, *2 acyl side, *3 side chain or, on linkers, in order; H or OH if unused. Where a SMILES comes first, the peptide text is derived from it. Side-chain parts run from the residue outwards. [ ]: non-standard residue; d: D form. The star is where a group is joined. C16 diacid = O=C(O)CCCCCCCCCCCCCCC(=O)*; γGlu = O=C(O)[C@H](CCC(=O)[*:2])N[*:1]; NMeI = CC[C@H](C)[C@H](NC)C(=O)O; Pentanoyl = CCCCC(=O)*; Aib = CC(C)(N)C(=O)O; Propionyl = CCC(=O)*; Butyryl = CCCC(=O)* A value given as a limit tells only on which side of the number the result lay.

One assay has as its target T1, human CRF2a receptor (Homo sapiens, UniProt Q13324).
T1 construct: expressed in transfected cells; host or cells: TeloHEAC cells
T1 sequence (Q13324 1-411): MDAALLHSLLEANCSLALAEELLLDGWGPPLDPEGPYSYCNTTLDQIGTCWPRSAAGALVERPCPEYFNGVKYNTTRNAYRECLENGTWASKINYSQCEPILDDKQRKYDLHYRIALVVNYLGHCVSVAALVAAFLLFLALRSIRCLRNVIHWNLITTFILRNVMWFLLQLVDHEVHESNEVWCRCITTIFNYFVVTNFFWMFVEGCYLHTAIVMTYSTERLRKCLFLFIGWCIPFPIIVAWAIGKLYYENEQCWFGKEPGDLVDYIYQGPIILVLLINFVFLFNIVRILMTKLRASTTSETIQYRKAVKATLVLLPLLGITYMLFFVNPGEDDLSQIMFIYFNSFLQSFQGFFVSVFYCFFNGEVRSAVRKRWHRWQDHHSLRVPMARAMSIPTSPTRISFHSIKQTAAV
Briefly: Activity at human CRF2a receptor, cAMP functional assay in TeloHEAC cells. In kind it is cell-based. The note with it: TeloHEAC cells stably expressing human CRF2a receptor, relative to urocortin 2 (100 nM = 100%). In outline:
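TeloHEAC cells stably expressing human CRF2a (10000 cells/well, suspended in HBSS/20 mM HEPES with 2 mM IBMX) were exposed to compounds for 30 min at 37 °C. cAMP was read as the 665/620 nm fluorescence ratio after 1 h at room temperature. EC50 was derived relative to 100 nM urocortin 2, set as 100%.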

A further assay deals with T2, CFR1R receptor (Homo sapiens, UniProt P34998).
T2 construct: host or cells: CHO-K1 (clone 2)
T2 sequence (P34998 24-415): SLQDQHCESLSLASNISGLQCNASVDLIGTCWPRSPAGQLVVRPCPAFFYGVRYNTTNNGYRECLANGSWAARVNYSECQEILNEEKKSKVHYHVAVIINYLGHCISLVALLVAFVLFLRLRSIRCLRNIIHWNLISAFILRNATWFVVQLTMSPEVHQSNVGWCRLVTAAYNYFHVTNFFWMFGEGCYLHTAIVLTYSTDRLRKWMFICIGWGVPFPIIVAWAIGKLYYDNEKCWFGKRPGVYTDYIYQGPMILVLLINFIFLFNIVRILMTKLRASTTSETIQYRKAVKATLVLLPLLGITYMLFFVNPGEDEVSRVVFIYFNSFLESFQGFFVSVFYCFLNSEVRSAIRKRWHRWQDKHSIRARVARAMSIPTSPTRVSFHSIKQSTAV
Briefly: Activity at anti-target CFR1R receptor, cAMP assay in CRF1R-overexpression CHO-K1 cells. It counts as cell-based. The note with it: 100% = Sauvagine at 100 nM; for EC50: cAMP. In outline: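 Signal is normalised to 100 nM Sauvagine, taken as 100% activation, in clone 2 cells plated at a final 4000 cells/well from frozen stocks.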

For orientation: EC50 means the concentration at which the effect is half-maximal. The low end stands for greater potency, the high end for weaker potency. `CC[C@H](C)[C@H](NC)C(=O)N[C@H](C(=O)N[C@@H](CC(C)C)C(=O)N[C@@H](CO)C(=O)N[C@@H](CC(C)C)C(=O)N[C@@H](CC(=O)O)C(=O)N[C@@H](C(=O)N1CCC[C@H]1C(=O)N[C@H](C(=O)N[C@@H](CCCCN)C(=O)N[C@@H](CC(C)C)C(=O)N[C@@H](CCCCNC(=O)CC[C@H](NC(=O)CCCCCCCCCCCCCCC(=O)O)C(=O)O)C(=O)N[C@@H](CCCCN)C(=O)N[C@H](C(=O)N[C@@H](CC(C)C)C(=O)N[C@@H](CC(C)C)C(=O)N[C@@H](CCC(=O)O)C(=O)N[C@@H](CCC(N)=O)C(=O)N[C@@H](CCC(=O)O)C(=O)N[C@@H](CCCCN)C(=O)N[C@@H](CCC(N)=O)C(=O)N[C@@H](CCCCN)C(=O)N[C@@H](C)C(=O)N[C@@H](CCC(N)=O)C(=O)N[C@@H](CCCNC(=N)N)C(=O)N[C@@H](CCC(=O)O)C(=O)N[C@@H](CCC(N)=O)C(=O)N[C@@H](C)C(=O)N[C@@H](CCC(=O)O)C(=O)N[C@H](C(=O)N[C@@H](CC(N)=O)C(=O)NC(C)(C)C(=O)N[C@@H](CCC(N)=O)C(=O)N[C@H](C(=O)N[C@@H](CC(C)C)C(=O)N[C@@H](C)C(=O)N[C@@H](CCC(N)=O)C(=O)N[C@H](C(N)=O)C(C)C)[C@@H](C)CC)[C@@H](C)O)[C@@H](C)CC)[C@@H](C)CC)C(C)C)C(C)C` [compound 74] (H-[NMeI]VLSLD[dV]PIKLK([γGlu-C16 diacid])KILLEQEKQKAQREQAETN[Aib]QILAQV-NH2) returned an EC50 on human CRF2a receptor of 0.15 nM. In addition, on CFR1R receptor, the “Emax (% I)” value was 7 % I and the concentration giving a half-maximal response (EC50) is more than 250 nM.

Take `CC[C@H](C)[C@H](NC)C(=O)N[C@H](C(=O)N[C@@H](CC(C)C)C(=O)N[C@@H](CO)C(=O)N[C@@H](CC(C)C)C(=O)N[C@@H](CC(=O)O)C(=O)N[C@@H](C(=O)N1CCC[C@H]1C(=O)N[C@H](C(=O)N[C@@H](CCCCN)C(=O)N[C@@H](CC(C)C)C(=O)N[C@@H](CCCCNC(=O)CC[C@H](NC(=O)CCCCCCCCCCCCCCC(=O)O)C(=O)O)C(=O)N[C@@H](CCCCN)C(=O)N[C@H](C(=O)N[C@@H](CC(C)C)C(=O)N[C@@H](CC(C)C)C(=O)N[C@@H](CCC(=O)O)C(=O)N[C@@H](CCC(N)=O)C(=O)N[C@@H](CCC(=O)O)C(=O)N[C@@H](CCCCN)C(=O)N[C@@H](CCC(N)=O)C(=O)N[C@@H](CCCCN)C(=O)NC(C)(C)C(=O)N[C@@H](CCC(N)=O)C(=O)N[C@@H](CCCNC(=N)N)C(=O)N[C@@H](CCC(=O)O)C(=O)N[C@@H](CCC(N)=O)C(=O)N[C@@H](C)C(=O)N[C@@H](CCC(=O)O)C(=O)N[C@H](C(=O)N[C@@H](CC(N)=O)C(=O)NC(C)(C)C(=O)N[C@@H](CCC(N)=O)C(=O)N[C@H](C(=O)N[C@@H](CC(C)C)C(=O)N[C@@H](C)C(=O)N[C@@H](CCC(N)=O)C(=O)N[C@H](C(N)=O)C(C)C)[C@@H](C)CC)[C@@H](C)O)[C@@H](C)CC)[C@@H](C)CC)C(C)C)C(C)C` [compound 75] (H-[NMeI]VLSLD[dV]PIKLK([γGlu-C16 diacid])KILLEQEKQK[Aib]QREQAETN[Aib]QILAQV-NH2): the EC50 was 0.19 nM at human CRF2a receptor and more than 250 nM at CFR1R receptor. For the same molecule, the “Emax (% I)” value on CFR1R receptor came out at 3 % I.

`CCC(=O)N[C@H](C(=O)N[C@@H](CC(C)C)C(=O)N[C@@H](CO)C(=O)N[C@@H](CC(C)C)C(=O)N[C@@H](CC(=O)O)C(=O)N[C@@H](C(=O)N1CCC[C@H]1C(=O)N[C@H](C(=O)N[C@@H](CCCCN)C(=O)N[C@@H](CC(C)C)C(=O)N[C@@H](CCCCNC(=O)CC[C@H](NC(=O)CCCCCCCCCCCCCCC(=O)O)C(=O)O)C(=O)N[C@@H](CCCCN)C(=O)N[C@H](C(=O)N[C@@H](CC(C)C)C(=O)N[C@@H](CC(C)C)C(=O)N[C@@H](CCC(=O)O)C(=O)N[C@@H](CCC(N)=O)C(=O)N[C@@H](CCC(=O)O)C(=O)N[C@@H](CCCCN)C(=O)N[C@@H](CCC(N)=O)C(=O)N[C@@H](CCCCN)C(=O)N[C@@H](CCCCN)C(=O)N[C@@H](CCC(N)=O)C(=O)N[C@@H](CCCNC(=N)N)C(=O)N[C@@H](CCC(=O)O)C(=O)N[C@@H](CCC(N)=O)C(=O)N[C@@H](C)C(=O)N[C@@H](CCC(=O)O)C(=O)N[C@H](C(=O)N[C@@H](CC(N)=O)C(=O)NC(C)(C)C(=O)N[C@@H](CCC(N)=O)C(=O)N[C@H](C(=O)N[C@@H](CC(C)C)C(=O)N[C@@H](C)C(=O)N[C@@H](CCC(N)=O)C(=O)N[C@H](C(N)=O)C(C)C)[C@@H](C)CC)[C@@H](C)O)[C@@H](C)CC)[C@@H](C)CC)C(C)C)C(C)C` [compound 78] (Propionyl-VLSLD[dV]PIKLK([γGlu-C16 diacid])KILLEQEKQKKQREQAETN[Aib]QILAQV-NH2): the EC50 on human CRF2a receptor is 0.73 nM; at CFR1R receptor, more than 250 nM. On CFR1R receptor, the “Emax (% I)” value was 7 % I.

In the case of `CCCC(=O)N[C@H](C(=O)N[C@@H](CC(C)C)C(=O)N[C@@H](CO)C(=O)N[C@@H](CC(C)C)C(=O)N[C@@H](CC(=O)O)C(=O)N[C@@H](C(=O)N1CCC[C@H]1C(=O)N[C@H](C(=O)N[C@@H](CCCCN)C(=O)N[C@@H](CC(C)C)C(=O)N[C@@H](CCCCNC(=O)CC[C@H](NC(=O)CCCCCCCCCCCCCCC(=O)O)C(=O)O)C(=O)N[C@@H](CCCCN)C(=O)N[C@H](C(=O)N[C@@H](CC(C)C)C(=O)N[C@@H](CC(C)C)C(=O)N[C@@H](CCC(=O)O)C(=O)N[C@@H](CCC(N)=O)C(=O)N[C@@H](CCC(=O)O)C(=O)N[C@@H](CCCCN)C(=O)N[C@@H](CCC(N)=O)C(=O)N[C@@H](CCCCN)C(=O)N[C@@H](CCCCN)C(=O)N[C@@H](CCC(N)=O)C(=O)N[C@@H](CCCNC(=N)N)C(=O)N[C@@H](CCC(=O)O)C(=O)N[C@@H](CCC(N)=O)C(=O)N[C@@H](C)C(=O)N[C@@H](CCC(=O)O)C(=O)N[C@H](C(=O)N[C@@H](CC(N)=O)C(=O)NC(C)(C)C(=O)N[C@@H](CCC(N)=O)C(=O)N[C@H](C(=O)N[C@@H](CC(C)C)C(=O)N[C@@H](C)C(=O)N[C@@H](CCC(N)=O)C(=O)N[C@H](C(N)=O)C(C)C)[C@@H](C)CC)[C@@H](C)O)[C@@H](C)CC)[C@@H](C)CC)C(C)C)C(C)C` [compound 79] (Butyryl-VLSLD[dV]PIKLK([γGlu-C16 diacid])KILLEQEKQKKQREQAETN[Aib]QILAQV-NH2), it took 0.38 nM to reach a half-maximal effect at human CRF2a receptor (EC50). At CFR1R receptor, the “Emax (% I)” value turned out to be 10 % I and the EC50 is more than 250 nM.

Turning to `CCCCC(=O)N[C@H](C(=O)N[C@@H](CC(C)C)C(=O)N[C@@H](CO)C(=O)N[C@@H](CC(C)C)C(=O)N[C@@H](CC(=O)O)C(=O)N[C@@H](C(=O)N1CCC[C@H]1C(=O)N[C@H](C(=O)N[C@@H](CCCCN)C(=O)N[C@@H](CC(C)C)C(=O)N[C@@H](CCCCNC(=O)CC[C@H](NC(=O)CCCCCCCCCCCCCCC(=O)O)C(=O)O)C(=O)N[C@@H](CCCCN)C(=O)N[C@H](C(=O)N[C@@H](CC(C)C)C(=O)N[C@@H](CC(C)C)C(=O)N[C@@H](CCC(=O)O)C(=O)N[C@@H](CCC(N)=O)C(=O)N[C@@H](CCC(=O)O)C(=O)N[C@@H](CCCCN)C(=O)N[C@@H](CCC(N)=O)C(=O)N[C@@H](CCCCN)C(=O)N[C@@H](CCCCN)C(=O)N[C@@H](CCC(N)=O)C(=O)N[C@@H](CCCNC(=N)N)C(=O)N[C@@H](CCC(=O)O)C(=O)N[C@@H](CCC(N)=O)C(=O)N[C@@H](C)C(=O)N[C@@H](CCC(=O)O)C(=O)N[C@H](C(=O)N[C@@H](CC(N)=O)C(=O)N[C@H](C(=O)N[C@@H](CCC(N)=O)C(=O)N[C@H](C(=O)N[C@@H](CC(C)C)C(=O)N[C@@H](C)C(=O)N[C@@H](CCC(N)=O)C(=O)N[C@H](C(N)=O)C(C)C)[C@@H](C)CC)C(C)C)[C@@H](C)O)[C@@H](C)CC)[C@@H](C)CC)C(C)C)C(C)C` [compound 81] (Pentanoyl-VLSLD[dV]PIKLK([γGlu-C16 diacid])KILLEQEKQKKQREQAETNVQILAQV-NH2), at human CRF2a receptor, it took 0.8 nM to reach a half-maximal effect (EC50). In addition, at CFR1R receptor, the “Emax (% I)” value was found to be 6 % I and the EC50 is more than 250 nM.
